Measured values from ChEMBL document CHEMBL1201862, “PubChem BioAssay data set” (2004).
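Briefly, cells in 96-well plates were exposed to five compound concentrations for 48 h, and endpoints were estimated by linear interpolation. GI50: concentration for 50% inhibition of growth.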 Calls of active or inactive are those of the source. Cut-off read from the data, not from the text of the source: active = GI50 up to about 1.1 µM and inactive = higher.

Key:
Assay in all cases: NCI-60 cell line screen, 48 h
786-0 = test system: 786-0
A498 = test system: A498
BT-549 = test system: BT-549
CCRF-CEM = test system: CCRF-CEM
COLO 205 = test system: COLO 205
HCT-15 = test system: HCT-15
HOP-62 = test system: HOP-62
HOP-92 = test system: HOP-92
MCF7 = test system: MCF7
MDA-MB-435 = test system: MDA-MB-435
MOLT-4 = test system: MOLT-4
NCI-H226 = test system: NCI-H226
RPMI-8226 = test system: RPMI-8226
SF-295 = test system: SF-295
SK-MEL-2 = test system: SK-MEL-2
SK-OV-3 = test system: SK-OV-3
SN12C = test system: SN12C
T47D = test system: T47D
HT-29 = test system: HT-29
Hs-578T = test system: Hs-578T

Row | SMILES | GI50 (786-0) | GI50 (A498) | GI50 (BT-549) | GI50 (CCRF-CEM) | GI50 (COLO 205) | GI50 (HCT-15) [µM] | GI50 (HOP-62) | GI50 (HOP-92) | GI50 (MCF7) | GI50 (MDA-MB-435) | GI50 (MOLT-4) | GI50 (NCI-H226) | GI50 (RPMI-8226) | GI50 (SF-295) | GI50 (SK-MEL-2) | GI50 (SK-OV-3) | GI50 (SN12C) | GI50 (T47D) | GI50 (HT-29) | GI50 (Hs-578T)
1 | COc1cc(C(=O)N(C(=O)N2CCCCC2)c2ccccc2)cc(OC)c1OC | > 100 µM (inactive) | > 100 µM (inactive) | > 100 µM (inactive) | > 100 µM (inactive) | > 100 µM (inactive) | > 100 | > 100 µM (inactive) | > 100 µM (inactive) | > 100 µM (inactive) | > 100 µM (inactive) | > 100 µM (inactive) | > 100 µM (inactive) | 89.1 µM (inactive) | > 100 µM (inactive) | > 100 µM (inactive) | > 100 µM (inactive) | > 100 µM (inactive) | > 100 µM (inactive) |  | 
2 | CCCC(=O)N/S(=N/S(=O)(=O)c1ccc(Cl)cc1)C(Cl)(Cl)Cl (stereo not given) | > 100 µM (inactive) | > 100 µM (inactive) | > 100 µM (inactive) | > 100 µM (inactive) |  | > 100 | > 100 µM (inactive) |  | > 100 µM (inactive) | > 100 µM (inactive) | > 100 µM (inactive) | > 100 µM (inactive) |  | > 100 µM (inactive) | 16.5 µM (inactive) | > 100 µM (inactive) | > 100 µM (inactive) | > 100 µM (inactive) | > 100 µM (inactive) | > 100 µM (inactive)
3 | C=C1C(=O)O[C@@H]2C[C@@H](C)[C@@H]3C=CC(=O)[C@@]3(C)[C@@H](O)[C@H]12 [HELENALIN] | 1.25 µM (inactive) | 1.86 µM (inactive) | 1.04 µM (active) | 0.313 µM (active) | 1.56 µM (inactive) | 2.33 | 5.89 µM (inactive) |  | 0.78 µM (active) | 1.58 µM (inactive) | 0.851 µM (active) | 1.63 µM (inactive) | 0.532 µM (active) | 2.77 µM (inactive) | 1.86 µM (inactive) |  | 1.36 µM (inactive) | 2.95 µM (inactive) | 1.71 µM (inactive) | 
4 | CCOC(=O)CCC(NC(=O)C(CCC(=O)OCC)NC(=O)C(Cc1ccc([N+](=O)[O-])cc1)NC(C)=O)C(=O)NNC(=O)OC(C)(C)C (stereo not given) | > 100 µM (inactive) | > 100 µM (inactive) | > 100 µM (inactive) |  | > 100 µM (inactive) | > 100 | > 100 µM (inactive) | > 100 µM (inactive) | > 100 µM (inactive) |  | > 100 µM (inactive) | > 100 µM (inactive) | > 100 µM (inactive) |  | > 100 µM (inactive) |  | > 100 µM (inactive) | 37.3 µM (inactive) | > 100 µM (inactive) | > 100 µM (inactive)
5 | c1ccc(N/N=N/c2ccc(-c3nc4ccccc4o3)cc2)nc1 | 91.8 µM (inactive) | 46.3 µM (inactive) | 28.8 µM (inactive) |  | 20.6 µM (inactive) | 33.7 | 55.8 µM (inactive) | 54.6 µM (inactive) | 35.6 µM (inactive) | 31 µM (inactive) | 21.6 µM (inactive) |  |  |  | 41.1 µM (inactive) | 35.4 µM (inactive) | 56.6 µM (inactive) | 25.2 µM (inactive) | 42.8 µM (inactive) | 77.8 µM (inactive)
6 | CCCCn1c(C)c(C)c2c1NN=C(C#N)S2(=O)=O | > 100 µM (inactive) |  | > 100 µM (inactive) |  | > 100 µM (inactive) | > 100 | > 100 µM (inactive) |  | > 100 µM (inactive) | > 100 µM (inactive) | > 100 µM (inactive) |  | > 100 µM (inactive) |  | > 100 µM (inactive) | > 100 µM (inactive) | > 100 µM (inactive) | > 100 µM (inactive) | > 100 µM (inactive) | > 100 µM (inactive)
7 | Cc1cc(C)nc(NS(=O)(=O)c2ccc(NNc3c4ccccc4nc4c(C(=O)Nc5ccc(S(=O)(=O)Nc6ncccn6)cc5)cccc34)cc2)n1 | 39.3 µM (inactive) |  | 36.8 µM (inactive) | 22.8 µM (inactive) | 27.1 µM (inactive) | 32.7 | 33.5 µM (inactive) | 27.3 µM (inactive) | 52.8 µM (inactive) | 21.5 µM (inactive) | 32.5 µM (inactive) | 22.5 µM (inactive) | 29.9 µM (inactive) | 32.4 µM (inactive) | 16.2 µM (inactive) | 31.5 µM (inactive) | 20.4 µM (inactive) | 26.1 µM (inactive) | 27.9 µM (inactive) | 71.8 µM (inactive)
8 | CC(=O)c1sc2c(c1O)c(=O)n(-c1ccccc1)c(=S)n2-c1ccccc1 | > 100 µM (inactive) |  | 95.3 µM (inactive) | > 10 µM (inactive) | > 100 µM (inactive) | > 100 |  | > 100 µM (inactive) | > 100 µM (inactive) | > 100 µM (inactive) | > 100 µM (inactive) | > 100 µM (inactive) | > 100 µM (inactive) | > 100 µM (inactive) | > 100 µM (inactive) |  | > 100 µM (inactive) | > 100 µM (inactive) | > 100 µM (inactive) | > 100 µM (inactive)
